Laboratory results: article PMC6225165, “Design and Synthesis of Novel Dehydroepiandrosterone Analogues as Potent Antiproliferative Agents” (Molecules : A Journal of Synthetic Chemistry and Natural …, 2018)

Key:
A549 = assay: MTT antiproliferative assay, A549; type: cell-based, human; conditions: 48 h, MTT; for inhibition at 100 µM: Homo sapiens, A549, read-out: % Growth Inhibition at 100 μM A549
Protocol: (§1) The antiproliferative activity of the title compounds against the panel of six different human cancer cell lines, viz. lung (A549), cervix (HeLa), liver (HepG-2), liver (BEL7402), colorectal (HCT116), and breast (MCF-7) cell lines, was evaluated using a standard MTT-based colorimetric assay. All cell lines were obtained from the Key Laboratory of Natural Resources and Functional Molecules of the Changbai Mountain (Yanbian University) and maintained in Dulbecco’s modified Eagle’s medium (DMEM) and RPMI Media 1640 (RPMI1640), supplemented with 10% foetal bovine serum (FBS) at 37 °C in a humidified atmosphere containing 5% CO2.
(§2) Cells were plated in 96-well plates at appropriate densities to ensure exponential growth throughout the experimental period (9 × 10^3 cells per well), and then allowed to adhere for 24 h. Cells were then treated for 48 h with each compound. After 48 h of incubation, 10 μL of MTT solution were added to each well to a final concentration of 2 mg·mL^−1. Plates were then incubated for a further 4 h. After incubation, the MTT solution was removed and 150 μL of DMSO were added to each well for coloration. The plates were shaken vigorously for 10 min at room temperature to ensure complete solubilisation. The optometric density (OD) was read on a microplate reader (EL × 800, BioTek, Highland Park, Winooski, VT, USA) at 492 nm, and the data were subsequently analysed. The percentage of cell growth inhibition was calculated from the following equation:Inhibitory rate (%) = [1 − (ODtreated − ODblank)/(ODcontrol − ODblank)] × 100.
(§3) To obtain the antiproliferative activity of compounds 2a–2w, the compounds were selected in the same way with four serial concentrations (1, 10, 50 and 100 μM) of those compounds. The optometric density (OD) reading was then used to calculate the IC50.

Hela = assay: MTT antiproliferative assay, Hela; type: cell-based, human; conditions: 48 h, MTT; for inhibition at 100 µM: Homo sapiens, read-out: % Growth Inhibition at 100 μM Hela
Protocol: as §1, §2, §3

HepG-2 = assay: MTT antiproliferative assay, HepG-2; type: cell-based, human; conditions: 48 h, MTT; for inhibition at 100 µM: Homo sapiens, HepG2, read-out: % Growth Inhibition at 100 μM HepG-2
Protocol: as §1, §2, §3

BEL7402 = assay: MTT antiproliferative assay, BEL7402; type: cell-based, human; conditions: 48 h, MTT; for inhibition at 100 µM: Homo sapiens, Bel-7402, read-out: % Growth Inhibition at 100 μM BEL7402
Protocol: as §1, §2, §3

HCT116 = assay: MTT antiproliferative assay, HCT116; type: cell-based, human; conditions: 48 h, MTT; for inhibition at 100 µM: Homo sapiens, HCT-116, read-out: % Growth Inhibition at 100 μM HCT116
Protocol: as §1, §2, §3

MCF-7 = assay: MTT antiproliferative assay, MCF-7; type: cell-based, human; conditions: 48 h, MTT; for inhibition at 100 µM: Homo sapiens, MCF7, read-out: % Growth Inhibition at 100 μM MCF-7
Protocol: as §1, §2, §3

[1] = test system: human normal liver (L02) cells; assay: MTT assay on normal cell line L02; type: cell-based; conditions: 48 h, MTT; for % Growth Inhibition at 100 μM L02 / inhibition at 100 µM: normal cells; for IC50: normal cell line; for inhibition at 100 µM: Homo sapiens, L02, read-out: % Growth Inhibition at 100 μM L02

Structure (SMILES)	% Growth Inhibition at 100 μM A549 (A549)	% Growth Inhibition at 100 μM Hela (Hela)	% Growth Inhibition at 100 μM HepG-2 (HepG-2)	% Growth Inhibition at 100 μM BEL7402 (BEL7402)	% Growth Inhibition at 100 μM HCT116 (HCT116)	% Growth Inhibition at 100 μM MCF-7 (MCF-7)	% Growth Inhibition at 100 μM L02 [1]	also measured
COc1ccccc1-n1cc(/C=C2\CC3C4CC=C5CC(O)CCC5(C)C4CCC3(C)C2=O)nn1 (stereo not shown) [Compound 2q, (E)-3-hydroxy-16-((1-(2-methoxyphenyl)-1H-1,2,3-triazol-4-yl)methylene)-10,13-dimethyl-1,3,4,7,8,9,10,11,12,13,15,16-dodecahydro-2H-cyclopenta[a]phenan-thren-17(14H)-one]	7.6%	NA (NA: antiproliferative activity <5%)	NA (NA: antiproliferative activity <5%)	10.0%	14.3%	34.6%	NA (NA: antiproliferative activity <5%)	–
COc1cccc(-n2cc(/C=C3\CC4C5CC=C6CC(O)CCC6(C)C5CCC4(C)C3=O)nn2)c1 (stereo not shown) [Compound 2r, (E)-3-hydroxy-16-((1-(3-methoxyphenyl)-1H-1,2,3-triazol-4-yl)methylene)-10,13-dimethyl-1,3,4,7,8,9,10,11,12,13,15,16-dodecahydro-2H-cyclopenta[a]phenan-thren-17(14H)-one]	NA (NA: antiproliferative activity <5%)	NA (NA: antiproliferative activity <5%)	NA (NA: antiproliferative activity <5%)	NA (NA: antiproliferative activity <5%)	NA (NA: antiproliferative activity <5%)	NA (NA: antiproliferative activity <5%)	16.9%	–
COc1ccc(-n2cc(/C=C3\CC4C5CC=C6CC(O)CCC6(C)C5CCC4(C)C3=O)nn2)cc1 (stereo not shown) [Compound 2s, (E)-3-hydroxy-16-((1-(4-methoxyphenyl)-1H-1,2,3-triazol-4-yl)methylene)-10,13-dimethyl-1,3,4,7,8,9,10,11,12,13,15,16-dodecahydro-2H-cyclopenta[a]phenan-thren-17(14H)-one]	44.0%	14.9%	42.3%	38.4%	70.7%	58.1%	58.5%	IC50 (A549): > 100 µM; IC50 (Hela): > 100 µM; IC50 (HepG-2): > 100 µM; IC50 (BEL7402): > 100 µM; IC50 (HCT116): 56.9 µM; IC50 (MCF-7): 69.4 µM; IC50 [1]: 81.1 µM
COc1ccc(-n2cc(/C=C3\CC4C5CC=C6CC(O)CCC6(C)C5CCC4(C)C3=O)nn2)cc1OC (stereo not shown) [Compound 2t, (E)-16-((1-(3,4-dimethoxyphenyl)-1H-1,2,3-triazol-4-yl)methylene)-3-hydroxy-10,13-dimethyl-1,3,4,7,8,9,10,11,12,13,15,16-dodecahydro-2H-cyclopenta[a]phenan-thren-17(14H)-one]	NA (NA: antiproliferative activity <5%)	NA (NA: antiproliferative activity <5%)	NA (NA: antiproliferative activity <5%)	NA (NA: antiproliferative activity <5%)	NA (NA: antiproliferative activity <5%)	NA (NA: antiproliferative activity <5%)	9.4%	–
COc1cc(-n2cc(/C=C3\CC4C5CC=C6CC(O)CCC6(C)C5CCC4(C)C3=O)nn2)cc(OC)c1OC (stereo not shown) [Compound 2u, (E)-3-hydroxy-10,13-dimethyl-16-((1-(3,4,5-trimethoxyphenyl)-1H-1,2,3-triazol-4-yl)methylene)-1,3,4,7,8,9,10,11,12,13,15,16-dodecahydro-2H-cyclopenta[a]phenanthren17(14H)-one]	–	–	–	–	–	–	–	inhibition at 100 µM (A549): 40.3%; inhibition at 100 µM (Hela): 60.5%; inhibition at 100 µM (HepG-2): 59.1%; inhibition at 100 µM (BEL7402): 51.2%; inhibition at 100 µM (HCT116): 59.2%; inhibition at 100 µM (MCF-7): 36.3%; inhibition at 100 µM [1]: 36.4%
CC12CCC3C(CC=C4CC(O)CCC43C)C1C/C(=C\c1cn(-c3ccc([N+](=O)[O-])cc3)nn1)C2=O (stereo not drawn) [Compound 2v, (E)-3-hydroxy-10,13-dimethyl-16-((1-(4-nitrophenyl)-1H-1,2,3-triazol-4-yl)methylene)1,3,4,7,8,9,10,11,12,13,15,16-dodecahydro-2H-cyclopenta[α]phenan-thren-17(14H)-one]	NA (NA: antiproliferative activity <5%)	NA (NA: antiproliferative activity <5%)	12.4%	13.2%	10.2%	NA (NA: antiproliferative activity <5%)	5.5%	–
CC12CCC3C(CC=C4CC(O)CCC43C)C1C/C(=C\c1cn(-c3ccc(C(F)(F)F)cc3)nn1)C2=O (stereo not drawn) [Compound 2w, (E)-3-hydroxy-10,13-dimethyl-16-((1-(4-(trifluoromethyl)phenyl)-1H-1,2,3-triazol4-y)methylene)-1,3,4,7,8,9,10,11,12,13,15,16-dodecahydro-2H-cyclopenta[α] phenanthren-17(14H)-one]	75.2%	44.1%	48.3%	62.2%	75.0%	41.3%	57.6%	IC50 (A549): 72.5 µM; IC50 (Hela): > 100 µM; IC50 (HepG-2): > 100 µM; IC50 (BEL7402): 94 µM; IC50 (HCT116): 22.7 µM; IC50 (MCF-7): > 100 µM; IC50 [1]: 93.7 µM
C[C@]12CC[C@H](O)CC1=CC[C@@H]1[C@@H]2CC[C@]2(C)C(=O)CC[C@@H]12 [DHEA, Dehydroepiandrosterone]	–	–	–	–	–	–	–	inhibition at 100 µM (A549): 24.8%; inhibition at 100 µM (Hela): 15.7%; inhibition at 100 µM (HepG-2): 10.9%; inhibition at 100 µM (BEL7402): 46.5%; inhibition at 100 µM (HCT116): 47.3%; inhibition at 100 µM (MCF-7): 17.1%; inhibition at 100 µM [1]: 44.6%
